Assay results published in patent US10315996B2, “ROR gamma (RORγ) modulators” (LEAD PHARMA HOLDING B.V., priority 2015, dated 2019).

Each compound was assayed against T1, RORγ (Homo sapiens, UniProt P51449) (assay: RORγ GAL4 reporter gene assay). Details: inhibition of RORγ activity, GAL4-RORγ-LBD luciferase reporter in 293FT cells, overnight incubation; read-out: mean pIC50 (converted).
T1 construct: expressed in transfected cells; host or cells: 293FT cells (Invitrogen), expression vector pFN26A (Promega)
T1 sequence (P51449 269-508 limits assumed): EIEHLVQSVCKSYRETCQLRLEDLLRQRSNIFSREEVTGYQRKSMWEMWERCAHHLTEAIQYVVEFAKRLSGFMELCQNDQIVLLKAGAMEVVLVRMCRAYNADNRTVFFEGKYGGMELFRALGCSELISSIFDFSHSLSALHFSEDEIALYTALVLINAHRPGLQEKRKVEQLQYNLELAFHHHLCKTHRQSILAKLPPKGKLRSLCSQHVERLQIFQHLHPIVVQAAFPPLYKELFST
Type: cell-based
Experimental: Example inhibitors 1-166 were tested for their ability to inhibit RORγ activity in a RORγ GAL4 reporter gene assay. The assay procedure and results are described below.
RORγ GAL4 Reporter Gene Assay Description
A GAL4 one-hybrid reporter system employing luciferase readout was established to determine inhibition of RORγ in 293FT cells. The RORγ ligand-binding domain (LBD) was fused to the yeast GAL4 DNA binding domain (DBD) and placed under the control of the human cytomegalovirus (CMV) immediate early promoter, using expression vector pFN26A (Promega) and standard recombinant DNA cloning methods. To serve as a control in the assay, a similar vector was generated in which the GAL4-DBD was fused to Herpes simplex virus protein 16 (VP16), a constitutive transcriptional activator.
To monitor the inhibitory effect of compounds on RORγ, a transcriptional reporter construct was used. The pGL4.35 vector (Promega) contains nine copies of the GAL4 Upstream Activator Sequence (UAS). This sequence drives the transcription of the luciferase reporter gene luc2P in response to binding of a fusion protein containing the GAL4 DNA binding domain, as for example expressed by the GAL4-RORγ-LBD and GAL4-VP16 expression vectors described above. To allow a GAL4 fusion protein to drive the expression of the luciferase reporter, the pGL4.35 expression vector and the appropriate GAL4 fusion protein expression vector were bulk transfected in the 293FT cells using standard transfection techniques.
The day after transfection, cells were plated into 96 well plates, test compound was added and the plates were incubated overnight. Subsequently, the firefly luciferase activity was quantified using luciferase detection reagent and luminescence readout.
Detailed Assay Description
293FT cells (Invitrogen) were transfected with a GAL4 fusion protein expression vector (as described above) and the transcriptional reporter construct (pGL4.35, Promega). 60 μL of TransIT-293 transfection reagent (Mirus Bio) was added drop wise to 1500 μl Opti-MEM I Reduced Serum Medium (Invitrogen) and incubated at room temperature (RT) for 5 to 20 minutes. 1500 μL of this reagent mixture was added to 5 μg of GAL4 fusion protein expression vector and 5 μg of the transcriptional reporter construct, and incubated at RT for 20 minutes.
To harvest 293FT cells from a T75 flask, first the culture medium was taken off the cells. Subsequently, the cells were washed with Phosphate Buffered Saline (PBS) (Lonza), after which the PBS was removed. To dissociate the cells, 1 ml of TrypLE Express (Invitrogen) was added to the flask, followed by incubation at RT until the cells visually started to detach. Cells were collected in 5 mL of assay medium (DMEM culture medium (Lonza), 10% dialyzed FBS (Invitrogen) and Pen/Strep (Lonza)) to achieve a single cell suspension. 10×10^6 cells were spun down and re-suspended in 10 mL of assay medium. Subsequently, the cell suspension was added to the transfection mix tube, and then transferred as a whole to a T75 flask (Greiner), followed by overnight (16-24 hours) incubation at 37° C. and 5% CO2.
For compound screening, the cells were harvested (as described above) and counted. 13×10^6 cells were spun down, the supernatant was aspirated and the cells were re-suspended in 17.3 mL of assay medium obtaining a cell suspension of 0.75×10^6 cells/mL. 80 μL of cell suspension (60,000 cells) was plated per well into a white, flat bottom, tissue culture treated, 96 well screening plates (Greiner).
Test compounds were diluted, starting from a 10 mM dimethylsulfoxide (DMSO) stock solution, to serial dilutions in DMSO at 500× the final test concentration. Subsequently, these solutions were diluted to 5× the final test concentration in two 10-fold-dilution steps in assay medium. The final DMSO concentration of the 5× test compound solution was 1%. […]
An IC50 of no more than 10 nM was found for `CCN(C(=O)c1ccc(NC(=O)Cc2ccc(S(=O)(=O)CC3CC3)cc2)cc1F)c1ccccc1Cl` [Example 118, N-(2-chlorophenyl)-4-[2-(4-cyclopropylmethanesulfonylphenyl)acetamido]-N-ethyl-2-fluorobenzamide] in this work.
An IC50 of no more than 100 nM was found for `CCN(C(=O)c1ccc(NC(=O)Cc2ccc(S(=O)(=O)NC3CC3)cc2)cc1)c1cccc(C(=O)OC)c1` [Example 47, methyl 3-(N-ethyl-4-{2-[4-(cyclopropylsulfamoyl)phenyl]acetamido}benzamido) benzoate] in this work.
An IC50 of no more than 100 nM was found for `CC(NC(=O)c1ccc(NC(=O)Cc2ccc(S(=O)(=O)CC3CC3)cc2)cc1)c1ccccc1` (stereo not shown) [Example 14, 4-[2-(4-cyclopropylmethanesulfonylphenyl)acetamido]-N-(1-phenylethyl)benzamide] in this work.
An IC50 of no more than 10 nM was found for `Cc1ccccc1N(C)C(=O)c1ccc(NC(=O)Cc2ccc(S(=O)(=O)CC3CC3)cc2)cc1Cl` [Example 117, 2-chloro-4-[2-(4-cyclopropylmethanesulfonylphenyl)acetamido]-N-methyl-N-(2-methylphenyl)benzamide] in this work.
An IC50 of no more than 10 nM was found for `CCN(C(=O)c1ccc(NC(=O)Cc2ccc(S(=O)(=O)CC3CC3)cc2)cc1F)c1cccc(C)c1C` [Example 119, 4-[2-(4-cyclopropylmethanesulfonylphenyl)acetamido]-N-(2,3-dimethylphenyl)-N-ethyl-2-fluorobenzamide] in this work.
An IC50 of no more than 1000 nM was found for `CC(C)CN(C)C(=O)c1ccc(NC(=O)Cc2ccc(S(=O)(=O)CC3CC3)cc2)cc1` [Example 8, 4-[2-(4-cyclopropylmethanesulfonylphenyl)acetamido]-N-methyl-N-(2-methylpropyl)benzamide] in this work.
An IC50 of no more than 1000 nM was found for `CCOC(=O)c1csc(C2CCCN2C(=O)c2ccc(NC(=O)Cc3ccc(S(=O)(=O)CC4CC4)cc3)cc2)n1` (stereo not shown) [Example 38, ethyl 2-(1-{4-[2-(4-cyclopropylmethanesulfonylphenyl)acetamido]benzoyl}pyrrolidin-2-yl)-1,3-thiazole-4-carboxylate] in this work.
An IC50 of no more than 100 nM was found for `O=C(Cc1ccc(S(=O)(=O)NC2CC2)cc1)Nc1ccc(C(=O)N(Cc2ccccc2)Cc2ccccc2)cc1` [Example 24, N,N-dibenzyl-4-{2-[4-(cyclopropylsulfamoyl)phenyl]acetamido}benzamide] in this work.
An IC50 of no more than 10 nM was found for `Cc1cc(N(C)C(=O)c2ccc(NC(=O)Cc3ccc(S(=O)(=O)CC4CC4)cc3)cc2)no1` [Example 90, 4-[2-(4-cyclopropylmethanesulfonylphenyl)acetamido]-N-methyl-N-(5-methyl-1,2-oxazol-3-yl)benzamide] in this work.
An IC50 of no more than 100 nM was found for `CCN(C(=O)c1ccc(NC(=O)Cc2ccc(S(=O)(=O)CC3CC3)cc2)cc1)c1cccnc1` [Example 52, 4-[2-(4-cyclopropylmethanesulfonylphenyl)acetamido]-N-ethyl-N-(pyridin-3-yl) benzamide] in this work.
An IC50 of no more than 10 nM was found for `Cc1cc(NC(=O)Cc2ccc(S(=O)(=O)CC3CC3)cc2)ccc1C(=O)N(C)c1ccccc1C` [Example 163, 4-[2-(4-cyclopropylmethanesulfonylphenyl)acetamido]-N,2-dimethyl-N-(2-methylphenyl)benzamide] in this work.
An IC50 of no more than 100 nM was found for `CCN(C(=O)c1ccc(NC(=O)Cc2ccc(S(=O)(=O)CC3CC3)cc2)cc1)c1nnc(C)s1` [Example 96, 4-[2-(4-cyclopropylmethanesulfonylphenyl)acetamido]-N-ethyl-N-(5-methyl-1,3,4-thiadiazol-2-yl)benzamide] in this work.
An IC50 of no more than 1000 nM was found for `CCOC(=O)c1cc2c(s1)CN(C(=O)c1ccc(NC(=O)Cc3ccc(S(=O)(=O)CC4CC4)cc3)cc1)CC2` [Example 33, ethyl 6-{4-[2-(4-cyclopropylmethanesulfonylphenyl)acetamido]benzoyl}-4H,5H,6H,7H-thieno[2,3-c]pyridine-2-carboxylate] in this work.
An IC50 of no more than 100 nM was found for `CC(C)CN(CC(C)C)C(=O)c1ccc(NC(=O)Cc2ccc(S(=O)(=O)CC3CC3)cc2)cc1` [Example 15, 4-[2-(4-cyclopropylmethanesulfonylphenyl)acetamido]-N,N-bis(2-methylpropyl)benzamide] in this work.
An IC50 of no more than 100 nM was found for `CCN(C(=O)c1ccc(NC(=O)Cc2ccc(S(=O)(=O)CC3CC3)cc2)cc1Cl)c1ccccc1` [Example 100, 2-chloro-4-[2-(4-cyclopropylmethanesulfonylphenyl)acetamido]-N-ethyl-N-phenylbenzamide] in this work.
An IC50 of no more than 100 nM was found for `CCN(C(=O)c1ccc(NC(=O)Cc2ccc(S(=O)(=O)CC3CC3)cc2)cc1OC)c1ccccc1` [Example 58, 4-[2-(4-cyclopropylmethanesulfonylphenyl)acetamido]-N-ethyl-2-methoxy-N-phenylbenzamide] in this work.
An IC50 of no more than 100 nM was found for `CC(C)(C)C1COc2ccccc2N1C(=O)c1ccc(NC(=O)Cc2ccc(S(=O)(=O)CC3CC3)cc2)cc1` (stereo not shown) [Example 121, N-[4-(3-tert-butyl-3,4-dihydro-2H-1,4-benzoxazine-4-carbonyl)phenyl]-2-(4-cyclopropylmethanesulfonylphenyl)acetamide] in this work.
An IC50 of no more than 10 nM was found for `CCN(C(=O)c1ccc(NC(=O)Cc2ccc(S(=O)(=O)CC3CC3)cc2)cc1)c1ccc(C)cc1` [Example 29, 4-[2-(4-cyclopropylmethanesulfonylphenyl)acetamido]-N-ethyl-N-(4-methylphenyl)benzamide] in this work.
An IC50 of no more than 1000 nM was found for `CC(C)(NC(=O)c1ccc(NC(=O)Cc2ccc(S(=O)(=O)CC3CC3)cc2)cc1)c1cccnc1` [Example 68, 4-[2-(4-cyclopropylmethanesulfonylphenyl)acetamido]-N-[2-(pyridin-3-yl)propan-2-yl]benzamide] in this work.
An IC50 of no more than 100 nM was found for `O=C(Cc1ccc(S(=O)(=O)CC2CC2)cc1)Nc1ccc(C(=O)N(c2ccccn2)C2CCOC2)cc1` (stereo not shown) [Example 136, 4-[2-(4-cyclopropylmethanesulfonylphenyl)acetamido]-N-(oxolan-3-yl)-N-(pyridin-2-yl)benzamide] in this work.
An IC50 of no more than 100 nM was found for `CN1CCN(C(=O)c2ccc(NC(=O)Cc3ccc(S(=O)(=O)CC4CC4)cc3)cc2)C(c2ccccc2)C1` (stereo not shown) [Example 57, 2-(4-cyclopropylmethanesulfonylphenyl)-N-[4-(4-methyl-2-phenylpiperazine-1-carbonyl)phenyl]acetamide] in this work.
An IC50 of no more than 100 nM was found for `CN(Cc1ccccc1)C(=O)c1ccc(NC(=O)Cc2ccc(S(=O)(=O)CC3CC3)cc2)cc1` [Example 5, N-benzyl-4-[2-(4-cyclopropylmethanesulfonylphenyl)acetamido]-N-methylbenzamide] in this work.
An IC50 of no more than 1000 nM was found for `Cc1cc(N(C)C(=O)c2ccc(NC(=O)Cc3ccc(S(=O)(=O)NC4CC4)cc3)cc2)no1` [Example 91, 4-{2-[4-(cyclopropylsulfamoyl)phenyl]acetamido}-N-methyl-N-(5-methyl-1,2-oxazol-3-yl)benzamide] in this work.
An IC50 of no more than 100 nM was found for `CN(CCc1ccccc1)C(=O)c1ccc(NC(=O)Cc2ccc(S(=O)(=O)CC3CC3)cc2)cc1` [Example 10, 4-[2-(4-cyclopropylmethanesulfonylphenyl)acetamido]-N-methyl-N-(2-phenylethyl)benzamide] in this work.
An IC50 of no more than 100 nM was found for `C[C@@H](c1ccccc1)N(C)C(=O)c1ccc(NC(=O)Cc2ccc(S(=O)(=O)CC3CC3)cc2)cc1` [Example 18, 4-[2-(4-cyclopropylmethanesulfonylphenyl)acetamido]-N-methyl-N-[(1S)-1-phenylethyl]benzamide] in this work.
